# Laboratory results reported in ChEMBL document CHEMBL5303573, “Mapping human microbiome drug metabolism by gut bacteria and their genes” (Nature, 2019).
# Assays:
# [1] = bacteroides thetaiotaomicron, 12 h, 2 µM
# Description: The drug is tested on Bacteroides thetaiotaomicron strain: VPI-5482 for biotransformation. The drug concentrations were measured before and after a 12-h incubation by liquid-chromatography-coupled mass spectrometry (LC–MS)
# [2] = The drug is tested on Clostridium ramosum strain: DSM1402 for biotransformation. The drug concentrations were measured before and after a 12-h incubation by liquid-chromatography-coupled mass spectrometry (LC–MS); conditions: thomasclavelia ramosa, 2 µM
# [3] = The drug is tested on Blautia luti strain: DSM14534 for biotransformation. The drug concentrations were measured before and after a 12-h incubation by liquid-chromatography-coupled mass spectrometry (LC–MS); type: ADME; set-up: dose 2 uM, timepoint 0 vs 12 hours; conditions: 2 µM
# [4] = bacteroides eggerthii, 12 h, 2 µM
# Description: The drug is tested on Bacteroides eggerthii strain: DSM20697 for biotransformation. The drug concentrations were measured before and after a 12-h incubation by liquid-chromatography-coupled mass spectrometry (LC–MS)
# [5] = The drug is tested on Enterococcus faecalis strain: V583 for biotransformation. The drug concentrations were measured before and after a 12-h incubation by liquid-chromatography-coupled mass spectrometry (LC–MS); conditions: 2 µM
# [6] = limosilactobacillus reuteri cf48-3a, 12 h, 2 µM
# Description: The drug is tested on Lactobacillus reuteri CF48-3A strain: BEI HM-102 for biotransformation. The drug concentrations were measured before and after a 12-h incubation by liquid-chromatography-coupled mass spectrometry (LC–MS)
# [7] = The drug is tested on Providencia rettgeri strain: DSM1131 for biotransformation. The drug concentrations were measured before and after a 12-h incubation by liquid-chromatography-coupled mass spectrometry (LC–MS); type: ADME; set-up: dose 2 uM, timepoint 0 vs 12 hours; conditions: 2 µM
# [8] = victivallis vadensis, 12 h, 2 µM
# Description: The drug is tested on Victivallis vadensis strain: ATCC BAA-548 for biotransformation. The drug concentrations were measured before and after a 12-h incubation by liquid-chromatography-coupled mass spectrometry (LC–MS)
# [9] = The drug is tested on Bacteroides caccae strain: ATCC43185 for biotransformation. The drug concentrations were measured before and after a 12-h incubation by liquid-chromatography-coupled mass spectrometry (LC–MS); conditions: 2 µM
# [10] = The drug is tested on Clostridium sporogenes strain: ATCC15579 for biotransformation. The drug concentrations were measured before and after a 12-h incubation by liquid-chromatography-coupled mass spectrometry (LC–MS); conditions: 2 µM
# [11] = The drug is tested on Bacteroides coprophilus strain: DSM18228 for biotransformation. The drug concentrations were measured before and after a 12-h incubation by liquid-chromatography-coupled mass spectrometry (LC–MS); conditions: 2 µM
# [12] = The drug is tested on Parabacteroides merdae strain: ATCC43184 for biotransformation. The drug concentrations were measured before and after a 12-h incubation by liquid-chromatography-coupled mass spectrometry (LC–MS); conditions: 2 µM
# [13] = bacteroides intestinalis, 12 h, 2 µM
# Description: The drug is tested on Bacteroides intestinalis strain: DSM17393 for biotransformation. The drug concentrations were measured before and after a 12-h incubation by liquid-chromatography-coupled mass spectrometry (LC–MS)
# [14] = The drug is tested on Collinsella intestinalis strain: DSM13280 for biotransformation. The drug concentrations were measured before and after a 12-h incubation by liquid-chromatography-coupled mass spectrometry (LC–MS); conditions: 2 µM
# [15] = bacteroides thetaiotaomicron, 12 h, 2 µM; remark: listed apart in the source
# Description: The drug is tested on Bacteroides thetaiotaomicron strain: 3731 for biotransformation. The drug concentrations were measured before and after a 12-h incubation by liquid-chromatography-coupled mass spectrometry (LC–MS)
# [16] = The drug is tested on Clostridium scindens strain: ATCC35704 for biotransformation. The drug concentrations were measured before and after a 12-h incubation by liquid-chromatography-coupled mass spectrometry (LC–MS); conditions: 2 µM
# [17] = bifidobacterium adolescentis, 12 h, 2 µM
# Description: The drug is tested on Bifidobacterium adolescentis strain: ATCC 15703 for biotransformation. The drug concentrations were measured before and after a 12-h incubation by liquid-chromatography-coupled mass spectrometry (LC–MS)
# [18] = parabacteroides johnsonii, 12 h, 2 µM
# Description: The drug is tested on Parabacteroides johnsonii strain: DSM18315 for biotransformation. The drug concentrations were measured before and after a 12-h incubation by liquid-chromatography-coupled mass spectrometry (LC–MS)
# [19] = The drug is tested on Bacteroides xylanisolvens strain: DSM18836 for biotransformation. The drug concentrations were measured before and after a 12-h incubation by liquid-chromatography-coupled mass spectrometry (LC–MS); conditions: 2 µM
# [20] = The drug is tested on Bacteroides fragilis strain: ATCC43859 for biotransformation. The drug concentrations were measured before and after a 12-h incubation by liquid-chromatography-coupled mass spectrometry (LC–MS); conditions: 2 µM
smiles,measurement,setting,value
OC(CCN1CCCCC1)(c1ccccc1)C1CC2C=CC1C2 (stereo unspecified) [BIPERIDEN],Bacterial Biotransformation,[1],Compound NOT metabolized
same,Bacterial Biotransformation,[2],Compound NOT metabolized
same,Bacterial Biotransformation,[3],Compound NOT metabolized
same,Bacterial Biotransformation,[4],Compound NOT metabolized
same,Bacterial Biotransformation,[5],Compound NOT metabolized
same,Bacterial Biotransformation,[6],Compound NOT metabolized
same,Bacterial Biotransformation,[7],Compound NOT metabolized
same,Bacterial Biotransformation,[8],Compound NOT metabolized
same,Bacterial Biotransformation,[9],Compound NOT metabolized
same,Bacterial Biotransformation,[10],Compound NOT metabolized
same,Bacterial Biotransformation,[11],Compound NOT metabolized
same,Bacterial Biotransformation,[12],Compound NOT metabolized
same,Bacterial Biotransformation,[13],Compound NOT metabolized
same,Bacterial Biotransformation,[14],Compound NOT metabolized
same,Bacterial Biotransformation,[15],Compound NOT metabolized
same,Bacterial Biotransformation,[16],Compound NOT metabolized
same,Bacterial Biotransformation,[17],Compound NOT metabolized
CC(NC(C)(C)C)C(=O)c1cccc(Cl)c1 (stereo unspecified) [BUPROPION],Bacterial Biotransformation,[1],Compound NOT metabolized
same,Bacterial Biotransformation,[2],Compound NOT metabolized
same,Bacterial Biotransformation,[3],Compound NOT metabolized
same,Bacterial Biotransformation,[4],Compound metabolized
same,Bacterial Biotransformation,[5],Compound NOT metabolized
same,Bacterial Biotransformation,[6],Compound NOT metabolized
same,Bacterial Biotransformation,[18],Compound NOT metabolized
same,Bacterial Biotransformation,[8],Compound NOT metabolized
same,Bacterial Biotransformation,[9],Compound NOT metabolized
same,Bacterial Biotransformation,[10],Compound NOT metabolized
same,Bacterial Biotransformation,[19],Compound NOT metabolized
same,Bacterial Biotransformation,[11],Compound metabolized
same,Bacterial Biotransformation,[12],Compound metabolized
same,Bacterial Biotransformation,[14],Compound NOT metabolized
same,Bacterial Biotransformation,[15],Compound NOT metabolized
same,Bacterial Biotransformation,[16],Compound NOT metabolized
O=P1(N(CCCl)CCCl)NCCCO1 (stereo unspecified) [CYCLOPHOSPHAMIDE ANHYDROUS],Bacterial Biotransformation,[1],Compound NOT metabolized
same,Bacterial Biotransformation,[3],Compound NOT metabolized
same,Bacterial Biotransformation,[4],Compound NOT metabolized
same,Bacterial Biotransformation,[5],Compound NOT metabolized
same,Bacterial Biotransformation,[18],Compound NOT metabolized
same,Bacterial Biotransformation,[8],Compound NOT metabolized
same,Bacterial Biotransformation,[10],Compound NOT metabolized
same,Bacterial Biotransformation,[19],Compound NOT metabolized
same,Bacterial Biotransformation,[11],Compound NOT metabolized
same,Bacterial Biotransformation,[12],Compound NOT metabolized
same,Bacterial Biotransformation,[13],Compound NOT metabolized
same,Bacterial Biotransformation,[14],Compound NOT metabolized
same,Bacterial Biotransformation,[15],Compound NOT metabolized
same,Bacterial Biotransformation,[17],Compound NOT metabolized
CC(=O)SCC(Cc1ccccc1)C(=O)NCC(=O)OCc1ccccc1 (stereo unspecified) [RACECADOTRIL],Bacterial Biotransformation,[1],Compound metabolized
same,Bacterial Biotransformation,[2],Compound NOT metabolized
same,Bacterial Biotransformation,[18],Compound metabolized
same,Bacterial Biotransformation,[7],Compound NOT metabolized
same,Bacterial Biotransformation,[8],Compound metabolized
same,Bacterial Biotransformation,[10],Compound metabolized
same,Bacterial Biotransformation,[19],Compound metabolized
same,Bacterial Biotransformation,[11],Compound metabolized
same,Bacterial Biotransformation,[12],Compound metabolized
same,Bacterial Biotransformation,[13],Compound metabolized
same,Bacterial Biotransformation,[14],Compound NOT metabolized
same,Bacterial Biotransformation,[15],Compound metabolized
same,Bacterial Biotransformation,[17],Compound metabolized
CSc1ccc2c(c1)C(N1CCN(C)CC1)Cc1ccccc1S2.O=C(O)/C=C\C(=O)O (stereo unspecified),Bacterial Biotransformation,[1],Compound NOT metabolized
same,Bacterial Biotransformation,[2],Compound NOT metabolized
same,Bacterial Biotransformation,[3],Compound NOT metabolized
same,Bacterial Biotransformation,[4],Compound NOT metabolized
same,Bacterial Biotransformation,[5],Compound NOT metabolized
same,Bacterial Biotransformation,[6],Compound NOT metabolized
same,Bacterial Biotransformation,[18],Compound metabolized
same,Bacterial Biotransformation,[7],Compound NOT metabolized
same,Bacterial Biotransformation,[9],Compound NOT metabolized
same,Bacterial Biotransformation,[10],Compound metabolized
same,Bacterial Biotransformation,[19],Compound NOT metabolized
same,Bacterial Biotransformation,[11],Compound NOT metabolized
same,Bacterial Biotransformation,[12],Compound NOT metabolized
same,Bacterial Biotransformation,[13],Compound NOT metabolized
same,Bacterial Biotransformation,[14],Compound NOT metabolized
same,Bacterial Biotransformation,[15],Compound NOT metabolized
same,Bacterial Biotransformation,[16],Compound metabolized
same,Bacterial Biotransformation,[20],Compound NOT metabolized
same,Bacterial Biotransformation,[17],Compound NOT metabolized
CN(C)CCC=C1c2ccccc2C=Cc2ccccc21 [CYCLOBENZAPRINE],Bacterial Biotransformation,[1],Compound NOT metabolized
same,Bacterial Biotransformation,[2],Compound NOT metabolized
same,Bacterial Biotransformation,[3],Compound NOT metabolized
same,Bacterial Biotransformation,[4],Compound NOT metabolized
same,Bacterial Biotransformation,[5],Compound NOT metabolized
same,Bacterial Biotransformation,[6],Compound NOT metabolized
same,Bacterial Biotransformation,[8],Compound NOT metabolized
same,Bacterial Biotransformation,[9],Compound NOT metabolized
same,Bacterial Biotransformation,[19],Compound NOT metabolized
same,Bacterial Biotransformation,[11],Compound NOT metabolized
same,Bacterial Biotransformation,[12],Compound NOT metabolized
same,Bacterial Biotransformation,[13],Compound NOT metabolized
same,Bacterial Biotransformation,[14],Compound NOT metabolized
same,Bacterial Biotransformation,[16],Compound NOT metabolized
same,Bacterial Biotransformation,[17],Compound NOT metabolized
CN1CCN(C2=Nc3cc(Cl)ccc3Nc3ccccc32)CC1 [CLOZAPINE],Bacterial Biotransformation,[1],Compound NOT metabolized
same,Bacterial Biotransformation,[2],Compound NOT metabolized
same,Bacterial Biotransformation,[3],Compound NOT metabolized
same,Bacterial Biotransformation,[4],Compound NOT metabolized
same,Bacterial Biotransformation,[6],Compound NOT metabolized
same,Bacterial Biotransformation,[18],Compound NOT metabolized
same,Bacterial Biotransformation,[7],Compound NOT metabolized
same,Bacterial Biotransformation,[8],Compound NOT metabolized
same,Bacterial Biotransformation,[9],Compound NOT metabolized
same,Bacterial Biotransformation,[19],Compound NOT metabolized
same,Bacterial Biotransformation,[12],Compound NOT metabolized
same,Bacterial Biotransformation,[13],Compound NOT metabolized
same,Bacterial Biotransformation,[14],Compound NOT metabolized
same,Bacterial Biotransformation,[15],Compound NOT metabolized
same,Bacterial Biotransformation,[16],Compound NOT metabolized
same,Bacterial Biotransformation,[17],Compound NOT metabolized
CN1C(=O)CCS(=O)(=O)C1c1ccc(Cl)cc1 (stereo unspecified) [CHLORMEZANONE],Bacterial Biotransformation,[1],Compound NOT metabolized
same,Bacterial Biotransformation,[2],Compound NOT metabolized
same,Bacterial Biotransformation,[4],Compound NOT metabolized
same,Bacterial Biotransformation,[5],Compound NOT metabolized
same,Bacterial Biotransformation,[6],Compound NOT metabolized
same,Bacterial Biotransformation,[8],Compound NOT metabolized
same,Bacterial Biotransformation,[9],Compound NOT metabolized
same,Bacterial Biotransformation,[10],Compound NOT metabolized
same,Bacterial Biotransformation,[19],Compound NOT metabolized
same,Bacterial Biotransformation,[11],Compound NOT metabolized
same,Bacterial Biotransformation,[13],Compound NOT metabolized
same,Bacterial Biotransformation,[14],Compound NOT metabolized
same,Bacterial Biotransformation,[16],Compound NOT metabolized
same,Bacterial Biotransformation,[17],Compound NOT metabolized
CNCCC(Oc1ccc(C(F)(F)F)cc1)c1ccccc1 (stereo unspecified) [FLUOXETINE],Bacterial Biotransformation,[1],Compound metabolized
same,Bacterial Biotransformation,[2],Compound metabolized
same,Bacterial Biotransformation,[3],Compound NOT metabolized
same,Bacterial Biotransformation,[4],Compound metabolized
same,Bacterial Biotransformation,[5],Compound metabolized
same,Bacterial Biotransformation,[6],Compound metabolized
same,Bacterial Biotransformation,[18],Compound metabolized
same,Bacterial Biotransformation,[7],Compound NOT metabolized
same,Bacterial Biotransformation,[9],Compound metabolized
same,Bacterial Biotransformation,[10],Compound metabolized
same,Bacterial Biotransformation,[19],Compound metabolized
same,Bacterial Biotransformation,[11],Compound metabolized
same,Bacterial Biotransformation,[12],Compound metabolized
same,Bacterial Biotransformation,[13],Compound metabolized
same,Bacterial Biotransformation,[14],Compound NOT metabolized
same,Bacterial Biotransformation,[15],Compound metabolized
same,Bacterial Biotransformation,[16],Compound NOT metabolized
same,Bacterial Biotransformation,[20],Compound metabolized
same,Bacterial Biotransformation,[17],Compound metabolized
CN1CCC(=C2c3ccccc3CCc3cccnc32)CC1.O=C(O)/C=C\C(=O)O.O=C(O)/C=C\C(=O)O [AZATADINE MALEATE],Bacterial Biotransformation,[1],Compound NOT metabolized
same,Bacterial Biotransformation,[2],Compound NOT metabolized
same,Bacterial Biotransformation,[3],Compound NOT metabolized
same,Bacterial Biotransformation,[4],Compound NOT metabolized
same,Bacterial Biotransformation,[5],Compound NOT metabolized
same,Bacterial Biotransformation,[6],Compound NOT metabolized
same,Bacterial Biotransformation,[18],Compound NOT metabolized
same,Bacterial Biotransformation,[7],Compound NOT metabolized
same,Bacterial Biotransformation,[8],Compound NOT metabolized
same,Bacterial Biotransformation,[9],Compound NOT metabolized
same,Bacterial Biotransformation,[10],Compound NOT metabolized
same,Bacterial Biotransformation,[11],Compound NOT metabolized
same,Bacterial Biotransformation,[12],Compound NOT metabolized
same,Bacterial Biotransformation,[13],Compound NOT metabolized
same,Bacterial Biotransformation,[14],Compound NOT metabolized
same,Bacterial Biotransformation,[15],Compound NOT metabolized
same,Bacterial Biotransformation,[16],Compound NOT metabolized
same,Bacterial Biotransformation,[17],Compound NOT metabolized
